Laboratory results reported in US11642369B2, “Method for enhancing expression of antioxidant in epidermis” (J-Network, Inc., priority 2020, dated 2023).

What was measured:
Diameter of vesicles = assay type: physicochemical; conditions: vesicles self-formed in a 2% aqueous solution
Experimental: Sample 62 was added to a medium in the form of refined vesicles. The refined vesicles were prepared in the following manner. […] Among the vesicles obtained by this preparation method, 97.3% had diameters in a range of 20 to 40 nm. In general, for example, the average diameters of vesicles self-formed in a 2% aqueous solution of GDM12 and a 2% aqueous solution of GDS23 are both about 140 nm.

Nrf-2 = experiment: Expression of oxidative stress response gene Nrf-2, quantitative real-time PCR; assay type: cell-based, human; conditions: NHEM, GDS23 500, 1000, 2000 μM, 6 hours; mRNA corrected with GAPDH, control 100%; FIG. 1
Experimental: (§1) After samples were prepared using normal human epidermal melanocytes, RNA was extracted, and expression and amplification of genes of each of target substances (Nrf-2, PPARG, NQO-1, CAT, and HMOX1) were checked by real-time PCR. PPARG is the genetic code of the protein PPARγ and is one of oxidative stress response genes.
(§2) Sample 1 is a control (no GDS23 added). Samples 2 to 4 are different from one another in the amount of GDS23. • Sample 1: Control (N.C.) • Sample 2: GDS23 (500 μM) • Sample 3: GDS23 (1000 μM) • Sample 4: GDS23 (2000 μM)
(§3) Thereafter, RNA was extracted from the cultured cells for each sample. Reverse transcription of the extracted RNA was performed to generate cDNA, and the quantity of mRNA of each target substance was determined by quantitative real-time PCR expression analysis. GAPDH (glyceraldehyde-3-phosphate dehydrogenase) was used as an internal standard. In the analysis, the mRNA expression level of each target substance was corrected with a value of the expression level of GAPDH as the internal standard in the same sample, and thereafter the correction value for each sample was calculated, assuming the correction value for the control as 100%.

CAT = experiment: Expression of antioxidant enzyme CAT, quantitative real-time PCR; assay type: cell-based, human; conditions: NHEM, GDS23 500, 1000 μM (Samples 1 to 3), 6 hours; mRNA corrected with GAPDH, control 100%; FIG. 4
Experimental: as §1, §2, §3

PPARG = experiment: Expression of oxidative stress response gene PPARG, quantitative real-time PCR; assay type: cell-based, human; conditions: NHEM, GDS23 500, 1000, 2000 μM, 6 hours; mRNA corrected with GAPDH, control 100%; FIG. 2
Experimental: as §1, §2, §3

HMOX1 = experiment: Expression of antioxidant enzyme HMOX1, quantitative real-time PCR; assay type: cell-based, human; conditions: NHEM, GDS23 500, 1000, 2000 μM, 6 hours; mRNA corrected with GAPDH, control 100%; FIG. 5
Experimental: as §1, §2, §3

NQO-1 = experiment: Expression of antioxidant enzyme NQO-1, quantitative real-time PCR; assay type: cell-based, human; conditions: NHEM, GDS23 500, 1000, 2000 μM, 6 hours; mRNA corrected with GAPDH, control 100%; FIG. 3
Experimental: as §1, §2, §3

glutathione = experiment: Expression of antioxidant protein: total glutathione per protein quantity, glutathione reductase recycling method; assay type: cell-based, human; conditions: NHEM, GDS23 500 to 4000 μM, 24 hours; control 100%; FIG. 6
Experimental: After samples were prepared using normal human epidermal melanocytes, the quantity of glutathione as an antioxidant protein in cells was checked.
Sample 5 is a control (no GDS23 added). Samples 6 to 9 are different from one another in the amount of GDS23. • Sample 5: Control (N.C.) • Sample 6: GDS23 (500 μM) • Sample 7: GDS23 (1000 μM) • Sample 8: GDS23 (2000 μM) • Sample 9: GDS23 (4000 μM)
Thereafter, for each sample, the protein quantity in epidermal melanocytes and the quantity of total glutathione (GSH+GSSG) were determined by a glutathione reductase recycling method, using an assay kit (TaKaRa BCA Protein Assay Kit: from Takara Bio Inc.). The total quantity of glutathione per protein quantity was obtained from the protein quantity and the total quantity of glutathione determined for each sample, and then an increased ratio for each sample was calculated when an increased ratio for the control was assumed as 100%.

average diameters of vesicles (Diameter of vesicles) | Substance | expression level of Nrf-2 (Nrf-2) | expression level of CAT (CAT) | expression level of PPARG (PPARG) | expression level of HMOX1 (HMOX1) | expression level of NQO-1 (NQO-1) | total quantity of glutathione per protein quantity (glutathione)
about 140 nm | PEG-12 glycerol dimyristate [GDM12] |  |  |  |  |  | 
about 140 nm | PEG-23 glycerol distearate [GDS23] | enhances expression | enhancement of CAT | enhances expression | Enhancement of HMOX1 | enhancement of NQO-1 | promotes production of glutathione
